Tested on: GCS-1::GFP
Assay: GCS-1::GFP reporter expression in the intestine of transgenic worms
Type: in vivo, C. elegans
From the text: A nucleic acid encoding the GCS-1 promoter (as described in An and Blackwell, 2003, Genes & Dev., 17, 1882-1893) was fused with a sequence encoding green fluorescent protein (GFP) to prepare a reporter construct (gcs-1::GFP) using standard molecular biology techniques. This fusion construct gene was transferred into C. elegans (An and Blackwell, 2003, Genes & Dev., 17, 1882-1893; Mello, et al., EMBO J. 1991. 10(12):3959-70), and the obtained transformed C. elegans were used in the experiment. Under normal, less oxidative stress conditions, the gcs-1::GFP construct is expressed in the pharynx area and ASI of C. elegans, where fluorescence emission of GFP can be measured.
Experiments were conducted to study the influence of the various extracts prepared in Example 1 on expression of the GCS-1::GFP reporter construct (described in Example 2) in C. elegans, following the method according to An and Blackwell, 2003, Genes & Dev., 17, 1882-1893.
Before each experiment, approximately 20 L4 stage worms carrying the GCS-1::GFP reporter construct transgene were picked to NGM plates (a type of agar media, see Brenner, Genetics, 1974 May; 77(1):71-94), containing OP50 bacteria (an E. coli strain, food for C. elegans), and were allowed to grow for 2 to 3 days. The worms were transferred together with a saline medium (M9) for treatment with the test materials to a microcentrifuge tube by flooding the NGM plate surface with the saline medium (M9). The microcentrifuge tube was then centrifuged, and a supernatant was removed. The same procedure was repeated again to wash the worms. This washing removed the bacteria which had been given as food.
Once the worms were washed, they were added for incubation in the specified test materials at the specified concentrations for the following amounts of time. Initially, incubation time was 30 minutes, and was later extended to include 60, 90, and 120 minutes. After treatment for said given times, the worms were washed in M9 at least twice, transferred back to an NGM plate containing bacteria, and allowed to recover for about 30 minutes. The worms were then mounted on slides, and scored for GFP expression levels under a microscope. GFP expression levels in the intestines of each worm were evaluated based on three scores; high, medium, and low expressions. A high score was given for worms with GFP expression through out the intestine. GFP expression midway up the intestine was scored medium. A low score was given to worms with very little or no GFP expression in their intestine. […]

[1] = comparison of GCS-1::GFP, Δ2 and Δ2mut3 worms

C[S+]([O-])CCCCN=C=S (stereo not shown) [sulforaphane]
regulation of GCS-1::GFP expression by SKN-1 [1]: not partially regulated by SKN-1 | site of GCS-1::GFP expression [1]: about half of GCS-1::GFP expression was seen in the pharynx | effect on GCS-1::GFP expression (sulforaphane 1 mg/mL, after 30, 60 or 90 minutes of incubation): no effect was seen | incubation time at which effect was first seen (sulforaphane 1 mg/mL, longer incubation): 6 h
